Measurements from patent publication US11046647B2, “Activators of the unfolded protein response” (The Board of Trustees of the University of Illinois, priority 2018, dated 2021).

Tests used:
[1] = system: MCF-7 cells; assay: Trypan Blue exclusion cell death assay, MCF-7; assay type: cell-based, human; conditions: 24 hours
From the text: TRYPAN BLUE: For decades, viable cells have been measured by their ability to exclude the dye Trypan Blue. […] Dead cells, which have lost membrane integrity, take up the dye and are blue. Thus, the percentage of dead cells is the percentage of cells that are Trypan Blue positive out of the total cell population. Quantitative assessment of Trypan Blue uptake uses a cell counter from Fisher. Since the assay is instrument based, there is no observer bias in determining the percentage of Trypan Blue positive cells.
TRYPAN BLUE ASSAYS: Assays are performed on cells in 6 well plates: 300,000 cells are plated in each well of a 6-well plate in 3 ml of medium. After 24 hours, the DMSO vehicle or the indicated compound is added (in 1000th of the vol.) The cells incubated for an additional 24 hours, and then harvested in 0.25 ml of trypsin, followed after harvest by 0.75 ml of medium. […]
The Trypan Blue cell death assay was used to evaluate the ability of the active enantiomer of 105 (−) [(−)-105] to kill ERα positive MCF-7 and TYS-Luc, human breast cancer cells. […] After 24 hours, the cells were harvested, and the % dead cells was determined by automated Trypan Blue exclusion using the Countess II automated hemocytometer. Percentage of viable cells was calculated by doing 100-(Cell Death %). […]

[2] = system: MDG-luc. cells; assay: Metastatic model, MDG-luc cells injected into the tail-vein; assay type: in vivo, mouse; conditions: daily dosing
From the text: (§1) FIG. 41. SERK-F6 eradicates mutant ERα primary and metastatic breast cancer. a-c, TYS-luc. orthotopic tumors were established in NSG ovariectomized mice (no E2 pellet, 60 days to establish) and dosed daily as indicated (n=5-6). b, representative examples of bioluminescence images of SERK-F6 treated mice (7 days). d,e, TDG-luc. orthotopic tumors were established in NSG ovariectomized mice (no E2 pellet, 120 days to establish) and dosed daily as indicated (n=4-5). e, Bioluminescence image of SERK-F6 treated mouse with TDG-luc. tumor burden after 7 days. f, MYS-luc. orthotopic tumors were established in NSG ovariectomized mice (no E2 pellet, 45 days to establish) and dosed daily as indicated (n=4-5). g, MDG-luc. orthotopic tumors were established in NSG ovariectomized mice (no E2 pellet, 45 days to establish) and dosed daily as indicated (n=4-5). h, Metastatic model with MDG-luc. cells injected into the tail-vein of NSG ovariectomized mice (no E2 pellet, 1.5 months to establish) and mice were dosed daily as indicated (n=4-5).

[3] = system: TYD-Luc cells (T47DERαD538G-luciferase human breast cancer cells) tumors; assay: Orthotopic TDG-Luc mouse xenograft, bioluminescent imaging; assay type: in vivo
From the text: as §1
FIG. 4A illustrates how IC50's for cell death were determined. 4B tests the ability BHPI, (−)-105, and 01-15 to kill. […] Large orthotopic breast tumors of TYD-Luc cells (T47DERαD538G-luciferase human breast cancer cells) were allowed to form for 4 months in immune suppressed NSG mice. […]

[4] = system: MCF-7; assay type: cell-based
Description: (§2) FIG. 36. Discovery of SERK-F6 (also known as, C(−)-105, (−)-105, (R)-105, (−)-1, or (R)-1), a compound that kills ERα-positive cancer cells, a, Chemical structures of BHPI and racemic compound 1 (i.e. (±)-1), and their cytotoxic activity on T47D breast cancer cells after 24-hour incubations with concentrations as indicated in nM. Cells were stained with annexin V-FITC and PI dyes prior to analysis via flow cytometry. […] Cells were incubated with SERK-F6 or positive control, Raptinal, for 24 hours and then stained with annexin V-FITC and PI dyes and analyzed via flow cytometry. Error bars represent S.E.M of 3 independent replicates. c, IC50 values of SERK-F6 after 24-hour incubation against a panel of cancer cell lines grouped by their reported ERα status. Cell viability was measured by Alamar blue fluorescence and set relative to a vehicle control and a quantitative dead control treated with Raptinal. Error bars represent S.E.M of 3 independent experiments. d, Crystal violet staining of T47D cells after 24-hour incubations with compounds and concentrations as indicated. Image is representative of 2 independent experiments. e,f, Long-term cell culture experiment with T47D, TDG, and TYS cells. Cells were incubated for 2 weeks with compounds (1 μM), followed by compound washout, and cells were cultured for 2 months. Cell number was determined by MTS. […]

[5] = system: MDA-MB-231; assay type: cell-based
Description: as §2

O=C1Nc2c(C(F)(F)F)cccc2C1(c1ccc(O)cc1)c1ccc(OC(F)(F)F)cc1 (single isomer, unassigned; (-)) [(−)-105, 3-(4-hydroxyphenyl)-3-(4-(trifluoromethoxy)phenyl)-7-(trifluoromethyl)indolin-2-one]
killing of MCF-7 cells, dose response [1]: superior to BHPI
metastatic tumor burden [2]: eradicates metastatic tumor burden
efficacy on oral administration ([3]; 40 mg/kg oral gavage, 3 days): effective when administered orally
effect on D538G mutant tumors (TDG cell line) ([3]; daily dosing): destruction of D538G mutant tumors
cytotoxicity [4]: cytotoxic
cytotoxicity [5]: minimal effects
